Here are results for five compounds from ChEMBL document CHEMBL3865826, “Synthesis and biological evaluation of a series of non-hemiacetal ester derivatives of artemisinin” (Eur J Med Chem, 2016).

Each structure is given as a SMILES string. Some results are limits rather than exact numbers.

The nature of data set [1]: Growth inhibition of human MCF7 cells measured after 24 hrs by SRB assay. Format: functional, cell-based. Conditions: MCF7, 24 h.
In data set [2] the test system is Plasmodium falciparum. Put plainly: Antiplasmodial activity against chloroquine-resistant asexual erythrocyte stage form Plasmodium falciparum Dd2 measured after 48 hrs by pLDH assay. Format: functional. Conditions: Dd2, 48 h.
The nature of data set [3]: Resistance index, ratio of IC50 for chloroquine-resistant asexual erythrocyte stage form Plasmodium falciparum Dd2 to IC50 for chloroquine-sensitive asexual erythrocyte stage form Plasmodium falciparum NF54. Format: functional.
The nature of data set [4]: Growth inhibition of human UACC62 cells measured after 24 hrs by SRB assay. Format: functional, cell-based. Conditions: UACC-62, 24 h.
Data set [5] can be described thus: Selectivity index, ratio of IC50 for human MCF7 cells to IC50 for chloroquine-resistant asexual erythrocyte stage form Plasmodium falciparum Dd2. The data set is classed as functional.
Data set [6] can be described thus: Selectivity index, ratio of IC50 for human WI38 cells to IC50 for chloroquine-sensitive asexual erythrocyte stage form Plasmodium falciparum NF54. The data set is classed as toxicity, cell-based, WI-38. Conditions: read-out: Ratio IC50.
In data set [7] the test system is Plasmodium falciparum. Put plainly: Antiplasmodial activity against chloroquine-sensitive asexual erythrocyte stage form Plasmodium falciparum NF54 measured after 48 hrs by pLDH assay. The data set is classed as functional. The note with it: NF54, 48 h.
The test system of data set [8] is CHO. Put plainly: Selectivity index, ratio of IC50 for CHO cells to IC50 for human UACC62 cells. Format: functional.
Data set [9] in a line: Cytotoxicity against CHO cells assessed as reduction in cell viability measured after 48 hrs by MTT assay. Format: toxicity, cell-based, Cricetulus griseus. The note with it: Chinese hamster. For orientation: Tetrazolium assays rely on reduction of a dye to a coloured formazan, in cell work by metabolically active cells.
Data set [10] in a line: Selectivity index, ratio of IC50 for human TK10 cells to IC50 for chloroquine-resistant asexual erythrocyte stage form Plasmodium falciparum Dd2. Format: functional, TK-10.
Data set [11] has as its system CHO. Put plainly: Selectivity index, ratio of IC50 for CHO cells to IC50 for human MCF7 cells. Format: functional.
Data set [12] is described as follows: Thermal stability of the compound assessed as melting point by thermogravimetric analysis. The data set is classed as physicochemical.
For the next data set, the system named is MCF7. Put plainly: Selectivity index, ratio of IC50 for human WI38 cells to IC50 for human MCF7 cells. The data set is classed as functional.
Data set [13] is described as follows: Cytotoxicity against human WI38 cells assessed as reduction in cell viability measured after 48 hrs by SRB assay. Format: toxicity, cell-based, WI-38.
Data set [14] can be described thus: Selectivity index, ratio of IC50 for human UACC62 cells to IC50 for chloroquine-resistant asexual erythrocyte stage form Plasmodium falciparum Dd2. Format: functional, UACC-62.
Another data set has as its system WI-38. Put plainly: Selectivity index, ratio of IC50 for human WI38 cells to IC50 for human TK10 cells. The data set is classed as functional.
A short description of data set [15]: Selectivity index, ratio of IC50 for CHO cells to IC50 for chloroquine-sensitive asexual erythrocyte stage form Plasmodium falciparum NF54. The data set is classed as toxicity, cell-based. Conditions: hamster, read-out: Ratio IC50.
The subject of another data set is UACC-62. Put plainly: Selectivity index, ratio of IC50 for human WI38 cells to IC50 for human UACC62 cells. Format: functional.
Data set [16] can be described thus: Growth inhibition of human TK10 cells measured after 24 hrs by SRB assay. The data set is classed as functional, cell-based. Conditions: TK-10, 24 h. (In general: Sulforhodamine B stains cellular protein and so reports cell mass.)
The test system of data set [17] is CHO. As to the kind of experiment: Selectivity index, ratio of IC50 for CHO cells to IC50 for human TK10 cells. The data set is classed as functional.
Data set [18] is described as follows: Thermal stability of the compound assessed as transition temperature by differential scanning calorimetry. The data set is classed as physicochemical. (In DSC, transitions show as peaks or steps in heat flow.)
Data set [19] can be described thus: Thermal stability of the compound assessed as onset of decomposition temperature by thermogravimetric analysis. The data set is classed as physicochemical.
The nature of data set [20]: Safety index, ratio of compound IC50 to emetine IC50 for human WI38 cells. Format: ADME, cell-based, WI-38. Conditions: read-out: Ratio IC50.
Data set [21] is described as follows: Safety index, ratio of compound IC50 to emetine IC50 for CHO cells. The data set is classed as ADME, cell-based, Cricetulus griseus. The note with it: Chinese hamster, read-out: Ratio IC50.
A short description of data set [22]: Thermal stability of the compound assessed as endotherm temperature by differential scanning calorimetry. Format: physicochemical.

On to `C[C@@H]1CC[C@H]2C(C)(COC(=O)c3ccc(F)cc3)O[C@@H]3O[C@]4(C)CC[C@@H]1[C@]32OO4` (stereo partly specified), for which the IC50 (in general, the concentration at which inhibition is half-maximal) in data set [1] stood at 2.5 µM; in the data set on Plasmodium falciparum [2] it was 0.0044 µM; in data set [4], 12 µM; in the data set with Plasmodium falciparum [7] it was 0.0037 µM; in data set [16] it was 41.7 µM. Further, the “Ratio IC50” value was 1.2 in data set [3]; 385 in data set [5]; greater than 8 in the data set with CHO [8]; 6415 in [10]; greater than 40 in the data set on CHO [11]; greater than 40 in the data set with MCF7. Besides, the “Ratio IC50” value was 1846 in data set [14], greater than 2 in the data set with WI-38, greater than 8 in the data set with UACC-62 and greater than 2 in the data set with CHO [17]. In addition, the selectivity ratio was greater than 27000 in [6] and 27000 in data set [15]. In addition, the IC50 at 48 h in data set [9] and in data set [13] was greater than 100 µM in each case. The Tm in [12] worked out at 171.9 °C.

For `C[C@@H]1CC[C@H]2C(C)(COC(=O)c3ccc([N+](=O)[O-])cc3)O[C@@H]3O[C@]4(C)CC[C@@H]1[C@]32OO4` (stereo partly specified), the IC50 is 44.4 µM in [1]; 0.0026 µM with Plasmodium falciparum [2]; greater than 100 µM in [4]; 0.0067 µM in the data set on Plasmodium falciparum [7]; 56 µM in data set [16]. In addition, the “Ratio IC50” value in data set [3] was 0.4; in data set [10] it was 21539; with CHO [11], greater than 2; with MCF7 it was greater than 2; in data set [14] it was 17077; in the data set on WI-38 it was greater than 2. Also, the “Ratio IC50” value in the data set with CHO [17] is given as greater than 2. In addition, the selectivity ratio in data set [6] and in data set [15] was greater than 14900 in each case. Besides, the IC50 at 48 h in data set [9] and in data set [13] was greater than 100 µM in each case. In addition, the Tm in data set [12] was determined as 172.4 °C. In addition, the T in data set [18] turned out to be 110 °C; in [19], 220 °C.

Consider `C[C@@H]1CC[C@H]2C(C)(COC(=O)c3ccc(-c4ccccc4)cc3)O[C@@H]3O[C@]4(C)CC[C@@H]1[C@]32OO4` (stereo partly specified), for which the IC50 in data set [1] came out at 2.51 µM; in the data set on Plasmodium falciparum [2], 0.0065 µM; in [4], 12 µM; in the data set with Plasmodium falciparum [7], 0.0073 µM; in data set [16] it was 41.7 µM. The “Ratio IC50” value in data set [3] is recorded as 0.9; in data set [5] it was 385; with CHO [8], greater than 8; in [10] it was 6415; with CHO [11] it was greater than 40; in the data set with MCF7, greater than 40. Also, the “Ratio IC50” value is listed as 1846 in data set [14], greater than 2 in the data set with WI-38, greater than 8 with UACC-62 and greater than 2 in the data set with CHO [17]. The selectivity ratio in data set [6] and in data set [15] was greater than 13700 in each case. In addition, the IC50 at 48 h in data set [9] and in data set [13] was greater than 100 µM in each case. Further, the Tm in data set [12] turned out to be 173.8 °C.

Take `C[C@@H]1CC[C@H]2C(C)(COC(=O)[C@@H]3CCCN3C(=O)C(F)(F)F)O[C@@H]3O[C@]4(C)CC[C@@H]1[C@]32OO4` (stereo partly specified): the 50% inhibitory concentration (IC50) in data set [1] stood at 2.9 µM; in the data set on Plasmodium falciparum [2], 0.0078 µM; in [4], 3 µM; in the data set with Plasmodium falciparum [7], 0.0079 µM; in data set [16] it was 13 µM. Besides, the “Ratio IC50” value in data set [3] stood at 1; in data set [5], 372; in the data set on CHO [8] it was 32.4; in data set [10] it was 1667; with CHO [11] it was 33.5; in the data set on MCF7, 11. Further, the “Ratio IC50” value is 385 in data set [14], 2 with WI-38, 11 in the data set with UACC-62 and 7.5 with CHO [17]. Also, the selectivity ratio was 4000 in data set [6], 12300 in data set [15], no more than 600 in data set [20] and no more than 600 in data set [21]. In addition, the IC50 at 48 h in [9] came to 97.1 µM; in data set [13] it was 31.6 µM. In addition, the Tm in data set [12] was found to be 172.2 °C. Further, the T in data set [18] amounted to 116 °C; in [19], 126 °C.

Consider `CC(=O)OCC1(C)O[C@@H]2O[C@]3(C)CC[C@H]4[C@H](C)CC[C@@H]1[C@@]24OO3` (stereo partly specified), for which the IC50 in data set [1] is greater than 100 µM; in the data set on Plasmodium falciparum [2], 0.0126 µM; in data set [4], greater than 100 µM; with Plasmodium falciparum [7] it was 0.0112 µM; in data set [16] it was greater than 100 µM. In addition, in data set [3], the “Ratio IC50” value turned out to be 1.1. In addition, the selectivity ratio in data set [6] and in data set [15] was greater than 8920 in each case. The IC50 at 48 h in [9] and in [13] was greater than 100 µM in each case. Besides, the Tm in [12] is 171.2 °C. The T in [19] was 164 °C; in [22], 90 °C.
